Data reported in PubChem BioAssay AID248 (DTP/NCI, 2004).
Where “and” joins values, the source holds several entries; their conditions need not be identical. Equal entries are not always repeated. Toxic doses and inconclusive results are not listed.

System: L1210 leukemia ip in BDF1 mice, survival T/C
Assay: NCI In Vivo Anticancer Drug Screen. Data for tumor model L1210 Leukemia (intraperitoneal) in B6D2F1 (BDF1) mice
Details: endpoint: mean survival time, higher = longer survival
Outline: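 Tumor cells were implanted, animals were treated, and survival was followed. The result divides the treated measurement by the vehicle-control measurement.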

[1] = dose: 100.0 mg/kg/injection, schedule: Q01DX009 (ip), vehicle: saline with Tween-80
[2] = dose: 100.0 mg/kg/injection, schedule: Q04DX003 (ip), vehicle: Klucel (hydroxypropylcellulose) (HPC)
[3] = dose: 200.0 mg/kg/injection, schedule: Q04DX003 (ip), vehicle: Klucel (hydroxypropylcellulose) (HPC)
[4] = dose: 400.0 mg/kg/injection, schedule: Q04DX003 (ip), vehicle: Klucel (hydroxypropylcellulose) (HPC)
[5] = dose: 100.0 mg/kg/injection, schedule: Q04DX002 (ip), vehicle: saline with Tween-80
[6] = dose: 200.0 mg/kg/injection, schedule: Q04DX002 (ip), vehicle: saline with Tween-80
[7] = dose: 400.0 mg/kg/injection, schedule: Q04DX002 (ip), vehicle: saline with Tween-80
[8] = dose: 100.0 mg/kg/injection, schedule: Q01DX001 (ip), vehicle: Klucel (hydroxypropylcellulose) (HPC)
[9] = dose: 200.0 mg/kg/injection, schedule: Q01DX001 (ip), vehicle: Klucel (hydroxypropylcellulose) (HPC)
[10] = dose: 400.0 mg/kg/injection, schedule: Q01DX001 (ip), vehicle: Klucel (hydroxypropylcellulose) (HPC)
[11] = dose: 100.0 mg/kg/injection, schedule: Q04DX003 (ip), vehicle: saline with Tween-80
[12] = dose: 200.0 mg/kg/injection, schedule: Q01DX009 (ip), vehicle: saline with Tween-80
[13] = dose: 200.0 mg/kg/injection, schedule: Q04DX003 (ip), vehicle: saline with Tween-80
[14] = dose: 400.0 mg/kg/injection, schedule: Q04DX003 (ip), vehicle: saline with Tween-80
[15] = dose: 100.0 mg/kg/injection, schedule: Q01DX009 (ip), vehicle: Klucel (hydroxypropylcellulose) (HPC)
[16] = dose: 200.0 mg/kg/injection, schedule: Q01DX009 (ip), vehicle: Klucel (hydroxypropylcellulose) (HPC)
[17] = dose: 400.0 mg/kg/injection, schedule: Q01DX009 (ip), vehicle: Klucel (hydroxypropylcellulose) (HPC)
[18] = dose: 100.0 mg/kg/injection, schedule: Q04DX003 (ip), vehicle: other
[19] = dose: 50.0 mg/kg/injection, schedule: Q01DX009 (ip), vehicle: saline
[20] = dose: 100.0 mg/kg/injection, schedule: Q01DX009 (ip), vehicle: saline
[21] = dose: 100.0 mg/kg/injection, schedule: Q04DX003 (ip), vehicle: saline
[22] = dose: 100.0 mg/kg/injection, schedule: Q01DX001 (ip), vehicle: saline
[23] = dose: 200.0 mg/kg/injection, schedule: Q01DX001 (ip), vehicle: saline
[24] = dose: 400.0 mg/kg/injection, schedule: Q01DX001 (ip), vehicle: saline
[25] = dose: 100.0 mg/kg/injection, schedule: Q04DX002 (ip), vehicle: Klucel (hydroxypropylcellulose) (HPC)
[26] = dose: 200.0 mg/kg/injection, schedule: Q04DX002 (ip), vehicle: Klucel (hydroxypropylcellulose) (HPC)
[27] = dose: 400.0 mg/kg/injection, schedule: Q04DX002 (ip), vehicle: Klucel (hydroxypropylcellulose) (HPC)
[28] = dose: 100.0 mg/kg/injection, schedule: Q01DX001 (ip), vehicle: carboxymethylcellulose (CMC)
[29] = dose: 200.0 mg/kg/injection, schedule: Q01DX001 (ip), vehicle: carboxymethylcellulose (CMC)
[30] = dose: 400.0 mg/kg/injection, schedule: Q01DX001 (ip), vehicle: carboxymethylcellulose (CMC)

## Cc1ccc(NC2CNC(=O)NC2=O)cc1C (stereo not drawn)
dose: 100.0 mg/kg/injection, schedule: Q01DX Z (ip), vehicle: saline
  T/C: 91 % of control
dose: 200.0 mg/kg/injection, schedule: Q01DX Z (ip), vehicle: saline
  T/C: 87 % of control

## CCOC(=O)c1ccc(Cl)cc1
[1]
  T/C: 88 % of control
[2]
  T/C: 97 % of control
[3]
  T/C: 102 % of control
[4]
  T/C: 102 % of control

## CC(=O)NCCCc1c(C)nc(N)[nH]c1=O
dose: 62.5 mg/kg/injection, schedule: Q01DX001 (ip), vehicle: Klucel (hydroxypropylcellulose) (HPC)
  T/C: 102 % of control
dose: 125.0 mg/kg/injection, schedule: Q01DX001 (ip), vehicle: Klucel (hydroxypropylcellulose) (HPC)
  T/C: 102 % of control
dose: 250.0 mg/kg/injection, schedule: Q01DX001 (ip), vehicle: Klucel (hydroxypropylcellulose) (HPC)
  T/C: 102 % of control

## Oc1cc2ccccc2cc1O
[5]
  T/C: 104 % of control
[6]
  T/C: 97 % of control
[7]
  T/C: 93 % of control

## NC(=O)Cc1cccc(=O)[nH]1
[8]
  T/C: 100 % of control
[9]
  T/C: 97 % of control
[10]
  T/C: 95 % of control

## COc1cc(/C=N/O)ccc1O
dose: 50.0 mg/kg/injection, schedule: Q01DX009 (ip), vehicle: saline with Tween-80
  T/C: 97 % of control and 105 % of control
[1]
  T/C: 97 % of control and 102 % of control
[11]
  T/C: 96 % of control
[12]
  T/C: 107 % of control and 112 % of control
[13]
  T/C: 87 % of control
[14]
  T/C: 91 % of control

## O=c1ccn(CCCc2ccccc2)c(=O)[nH]1
[15]
  T/C: 94 % of control
[16]
  T/C: 109 % of control
[17]
  T/C: 94 % of control

## c1ccc(C[Se]Cc2ccccc2)cc1
[18]
  T/C: 92 % of control

## Cc1ccc(S(=O)(=O)N(C)c2ccc(N(C)S(=O)(=O)c3ccc(C)cc3)cc2)cc1
[2]
  T/C: 97 % of control
[3]
  T/C: 97 % of control
[4]
  T/C: 97 % of control

## C/C(=N\[N+](C)(C)C)c1ccc(Br)cc1
dose: 12.5 mg/kg/injection, schedule: Q04DX003 (ip), vehicle: saline
  T/C: 109 % of control
dose: 25.0 mg/kg/injection, schedule: Q01DX009 (ip), vehicle: saline
  T/C: 92 % of control
dose: 25.0 mg/kg/injection, schedule: Q04DX003 (ip), vehicle: saline
  T/C: 100 % of control
[19]
  T/C: 91 % of control
dose: 50.0 mg/kg/injection, schedule: Q04DX003 (ip), vehicle: saline
  T/C: 104 % of control
[20]
  T/C: 91 % of control
[21]
  T/C: 102 % of control

## Cn1c2ccccc2c2nnc(SCCN3CCOCC3)nc21
[5]
  T/C: 97 % of control
[6]
  T/C: 93 % of control
[7]
  T/C: 101 % of control

## CC(C)(CO)CN1CCCC1
[22]
  T/C: 103 % of control
[23]
  T/C: 100 % of control

## CCCCCCCCCCCCCCCC(=O)N(CC#N)CC#N
[2]
  T/C: 91 % of control
[3]
  T/C: 92 % of control
[4]
  T/C: 89 % of control

## O=C(NNC(=O)c1cccc([N+](=O)[O-])c1)C(=O)NNC(=O)c1cccc([N+](=O)[O-])c1
[15]
  T/C: 100 % of control
[16]
  T/C: 110 % of control
[17]
  T/C: 105 % of control

## CC(=O)Oc1ccc(CCNC(c2ccccc2)c2ccccc2)cc1OC(C)=O
[22]
  T/C: 100 % of control
[23]
  T/C: 107 % of control
[24]
  T/C: 86 % of control

## O=C(Nc1ccc(Br)cc1)Nc1cc([N+](=O)[O-])ccc1F
[2]
  T/C: 89 % of control
[3]
  T/C: 91 % of control
[4]
  T/C: 102 % of control

## CCCCCCCCCCCCO[P+](=O)OCCCCCCCCCCCC
dose: 100.0 mg/kg/injection, schedule: Q01DX009 (ip), vehicle: saline sonified
  T/C: 93 % of control
[21]
  T/C: 95 % of control
dose: 200.0 mg/kg/injection, schedule: Q01DX009 (ip), vehicle: saline sonified
  T/C: 93 % of control
dose: 200.0 mg/kg/injection, schedule: Q04DX003 (ip), vehicle: saline
  T/C: 100 % of control
dose: 222.0 mg/kg/injection, schedule: Q01DX Z (ip), vehicle: methylcellulose (MC)
  T/C: 96 % of control
dose: 333.0 mg/kg/injection, schedule: Q01DX Z (ip), vehicle: methylcellulose (MC)
  T/C: 95 % of control
dose: 400.0 mg/kg/injection, schedule: Q04DX003 (ip), vehicle: saline
  T/C: 90 % of control

## O=C1C(Cl)=C(Nc2nc3ccccc3s2)C(=O)c2ccccc21
[8]
  T/C: 100 % of control
[9]
  T/C: 94 % of control

## O=C(O)c1ccc(F)cc1F
[25]
  T/C: 121 % of control
[26]
  T/C: 105 % of control
[27]
  T/C: 98 % of control

## COc1cc([N+](=O)[O-])ccc1C
dose: 100.0 mg/kg/injection, schedule: Q01DX009 (ip), vehicle: other
  T/C: 111 % of control
[18]
  T/C: 97 % of control
dose: 200.0 mg/kg/injection, schedule: Q01DX009 (ip), vehicle: other
  T/C: 98 % of control
dose: 200.0 mg/kg/injection, schedule: Q04DX003 (ip), vehicle: other
  T/C: 90 % of control
dose: 400.0 mg/kg/injection, schedule: Q01DX009 (ip), vehicle: other
  T/C: 104 % of control
dose: 400.0 mg/kg/injection, schedule: Q04DX003 (ip), vehicle: other
  T/C: 88 % of control

## CC1=CC(=O)CC(C)(C)C1
[1]
  T/C: 101 % of control
[12]
  T/C: 101 % of control
dose: 400.0 mg/kg/injection, schedule: Q01DX009 (ip), vehicle: saline with Tween-80
  T/C: 90 % of control

## CCC(C)(C)C(=O)Nc1cccc(O)c1
[11]
  T/C: 92 % of control
[13]
  T/C: 90 % of control
[14]
  T/C: 95 % of control

## Cc1ccc(N=Nc2ccc(C)cc2NC(=O)Nc2cc([N+](=O)[O-])ccc2C)cc1
[25]
  T/C: 92 % of control
[26]
  T/C: 101 % of control
[27]
  T/C: 111 % of control

## O=C(Nc1ccc(F)c(Cl)c1)Oc1ccc(Br)cc1Br
[5]
  T/C: 100 % of control
[6]
  T/C: 107 % of control
[7]
  T/C: 100 % of control

## CC#CC(O)(C(=O)OC)c1ccccc1 (stereo not drawn)
[28]
  T/C: 94 % of control
[29]
  T/C: 102 % of control
[30]
  T/C: 108 % of control

## CN(C)/C=N\N(c1ccccc1)c1ccccc1
[5]
  T/C: 106 % of control
[6]
  T/C: 98 % of control

## OCCCC1CCCCC1
[19]
  T/C: 97 % of control
[20]
  T/C: 175 % of control
dose: 200.0 mg/kg/injection, schedule: Q01DX009 (ip), vehicle: saline
  T/C: 103 % of control

## CSc1ccc(NC(=O)Oc2cc(C)c(Cl)cc2C(C)C)cc1
[15]
  T/C: 94 % of control
[16]
  T/C: 96 % of control
[17]
  T/C: 89 % of control

## CCP(C)(=S)CC
[15]
  T/C: 101 % of control
[16]
  T/C: 100 % of control
[17]
  T/C: 100 % of control

## NC(=O)C(c1ccccc1)C1(O)CCCCC1 (stereo not drawn)
dose: 50.0 mg/kg/injection, schedule: Q01DX001 (ip), vehicle: saline
  T/C: 102 % of control
[22]
  T/C: 104 % of control
[23]
  T/C: 96 % of control
[24]
  T/C: 91 % of control

## NC12CCCCC1(O)CCCC2 (stereo not drawn)
dose: 75.0 mg/kg/injection, schedule: Q01DX001 (ip), vehicle: saline
  T/C: 101 % of control
dose: 150.0 mg/kg/injection, schedule: Q01DX001 (ip), vehicle: saline
  T/C: 101 % of control
dose: 300.0 mg/kg/injection, schedule: Q01DX001 (ip), vehicle: saline
  T/C: 95 % of control

## CC(Sc1ccc([N+](=O)[O-])cn1)C(=O)O (stereo not drawn)
dose: 50.0 mg/kg/injection, schedule: Q01DX001 (ip), vehicle: carboxymethylcellulose (CMC)
  T/C: 107 % of control
[28]
  T/C: 101 % of control
[29]
  T/C: 101 % of control
[30]
  T/C: 109 % of control

## O=C(Nc1cccc(C(F)(F)F)c1)Nc1cccc(C(F)(F)F)c1
[8]
  T/C: 94 % of control and 91 % of control
[11]
  T/C: 97 % of control and 87 % of control
[9]
  T/C: 98 % of control
[13]
  T/C: 99 % of control and 87 % of control
[10]
  T/C: 94 % of control
[14]
  T/C: 97 % of control and 89 % of control
